Consider 2 molecules from patent US20220211695A1, “MORPHINE-INDUCED RESPIRATORY DEPRESSION: BEHAVIORAL, PHRENIC AND BRAINSTEM RESPIRATORY NEURONAL EVIDENCE” (GEORGIA STATE UNIVERSITY RESEARCH FOUNDATION, INC., priority 2019, published 2022).

Series [1] deals with phrenic discharges. Briefly: Phrenic discharge recording in spontaneously breathing rats after decerebration.
A further series has as its system Sprague Dawley rats. In words: Plethysmography of breathing after repetitive (chronic) morphine administrations, with or without cloperastine. The source says:
A major adverse effect of the chronic use of opioid drugs is respiratory depression causing a […] in the United States. Via μ-Opioid receptors (MOR), respiratory neurons in the brainstem are known to be the targets, especially those in the ventral respiratory column (VRC). However, how the VRC neurons react to chronic opioid drugs remains elusive. To understand how chronic morphine exposures affect brainstem respiratory motor output, we performed these studies in Sprague Dawley rats, using repetitive morphine administrations. […] Since the MOR is coupled to GIRK channels, we applied Cloperastine, a GIRK channel blocker and a commercial OTC drug, to the rats before or after chronic morphine.
Disclosed herein are methods for treating chronic morphine exposures and how this exposure affects brainstem respiratory motor output. Disclosed herein are studies using Sprague Dawley rats, during which repetitive morphine administrations were conducted.

The subject of series [2] is rostral ventral respiratory group (rVRG) neurons. In words: Extracellular recording of firing activity of respiratory neurons in the ventral respiratory group. It is filed as in vivo, Sprague Dawley rats.
Experimental: Firing activity of respiratory neurons was recorded extracellularly in the ventral respiratory group.
The test system of series [3] is phrenic discharges. As to conditions: rat, in vivo.
The mark [4] stands for this setting: 50 mg/kg morphine followed by 30 mg/kg cloperastine.

Regarding `Clc1ccc(C(OCCN2CCCCC2)c2ccccc2)cc1` (stereo not drawn) [cloperastine], the “phrenic discharge pattern (FIG. 19)” value with phrenic discharges [1] (setting [4]) is “erratic phrenic activity has nearly completely subsided”. Moreover, in the series with Sprague Dawley rats (30 mg/kg cloperastine injected after 10 mg/kg morphine), the “erratic breathing (FIG. 8)” value is on record as “reduction in erratic breathing”. For the same molecule, the “erratic breathing (FIG. 11)” value in the series with Sprague Dawley rats (30 mg/kg cloperastine injected first, then 10 mg/kg morphine) is “reduction in erratic breathing”. In addition, the “effect on chronic morphine-induced central hypoventilation” value in the series with Sprague Dawley rats (cloperastine applied before or after chronic morphine) is “reverses hypoventilation mainly by suppression the irregularity of breathing amplitude and frequency”. Moreover, in the series on Sprague Dawley rats (cloperastine given at 20 minutes post morphine), the “time at which a significant change in normalized minute ventilation occurs (FIG. 16)” value is “about 45 minutes”. For the same molecule, in the series on Sprague Dawley rats (cloperastine injection after morphine, normalized time course), the “effect on morphine's effects on breathing frequency (FIG. 13)” value is recorded as “reducing the effects of morphine of breathing frequency”. In addition, the “firing activity of rVRG neurons (FIG. 31)” value in series [2] (setting [4]) is “return to near normal firing activity”. In the series with phrenic discharges [3], the “Te and Ti duration (FIG. 24)” value is on record as “nearly the same as the control”; the “Te/Ti ratio (FIG. 25)” value is given as “nearly identical to control”; the “breathing frequency (FIG. 26)” value is on record as “nearly identical to control”.
On to `CN1CC[C@]23c4c5ccc(O)c4O[C@H]2[C@@H](O)C=C[C@H]3[C@H]1C5` [morphine], for which the “ectopic phrenic activity during expiration” value in the series with phrenic discharges [1] (after chronic morphine exposures) is reported as “Ectopic phrenic activity during expiration was seen”. The “effect on breathing (minute ventilation, variation of amplitude and frequency)” value in the series with Sprague Dawley rats (10 mg/kg morphine) was “causes central hypoventilation with decreased breathing minute ventilation, increased variation of both breathing amplitude & frequency”. Further, the “breathing depression after repetitive morphine administrations” value in the series on Sprague Dawley rats (chronic morphine, Sprague Dawley rats) is given as “severe breathing depression was found in these rats”. Also, the “time for the breathing effects to reach a plateau level” value in the series on Sprague Dawley rats (repetitive morphine administrations) was in the range of 3 to 4 days. Further, the “duration of minute ventilation suppression” value with Sprague Dawley rats (same dose morphine following the chronic treatments) is 3 to 4 h. Further, the “suppression of minute ventilation” value with Sprague Dawley rats (same dose morphine following the chronic treatments, n=16 rats, plethysmography) was 55.2%±4.1. Also, the “variations in tidal volume and breathing frequency” value in the series with Sprague Dawley rats (same dose morphine following the chronic treatments, plethysmography) was “severe variations in tidal volume and breathing frequency”. The “E-I phase-spanning neurons in the ventral respiratory group” value in series [2] (chronic morphine versus saline injection) is listed as “A large number of E-I phase-spanning neurons were observed”.
